Tests used:
Flag‐DOPr [1] = assay: Agonist‐induced internalization of Flag‐DOPrs in primary cortical neuron cultures; type: cell-based, Murine; conditions: 10 µmol/L, 60 min; rat primary cortical neurons transfected with Flag‐DOPr; three independent experiments
Description: (§1) Primary neuronal cultures were prepared from rat post‐natal prefrontal cortex (P0‐P2) as previously described. ^19 Briefly, three cultures were independently prepared from 8 to 12 pups each. Pups were cryo‐anaesthetized, and brains were removed and transferred into ice‐cold dissociation solution (NaS0_4 90 mmol/L; K2SO4 30 mmol/L; MgCl2 5.8 mmol/L; CaCl20.25 mmol/L; HEPES 10 mmol/L; glucose 20 mmol/L; pH 7.4). Following dissection, the frontal cortex was digested in papain solution (20 U/mL; 40 minutes at 37°C), and the product passed through Pasteur pipettes of progressively decreasing diameter for mechanical dissociation. The suspension obtained was centrifuged, and cells were then resuspended and diluted to a density of 2.5 million/mL, before plating onto glass coverslips pre‐coated with collagen/poly l‐lysine (each at 0.1 mg/mL). Culture proceeded in supplemented Neurocell medium (B27 4%; 100 U/mL penicillin‐streptomycin; GlutaMAX 2%; FBS 10%) for 24 hours. Coverslips were then transferred to a six‐well plate containing 2 mL of Neurocell medium/well and transfected with Flag‐DOPr (8 µg/well), using a calcium phosphate transfection protocol previously. ^19 Murine DORs tagged with the Flag epitope at the N terminus were a generous gift from Dr M. von Zastrow (University of California at San Francisco, San Francisco, CA).
Immunolabelling of surface receptors for quantification of trafficking was performed as previously described. ^19 Briefly, primary cultures expressing Flag‐DOPrs were incubated at 37°C with Neurocell medium containing Ca^2+‐dependent mouse anti‐Flag M1 antibody (1:100; Sigma). […]
(§2) Cytoplasmic and surface labelling densities were quantified with ImageJ using a previously described method, ^27 with small modifications. ^16 In particular, total cytoplasmic labelling density was obtained by measuring fluorescence intensity within the region confined between the external and nuclear perimeters, and dividing this value by the corresponding area. […]

Flag‐DOPr [2] = assay: DOPr recycling after recovery from agonist‐induced internalization in primary cortical neuron cultures; type: cell-based, Murine; conditions: for Surface labelling after recovery / Intracellular immunoreactivity after 60 min recovery vs immediately after treatment: 10 µmol/L; for Surface labelling after recovery / Effect of ECE2 inhibitor 6634449 on redistribution of internalized receptors during recovery: 60 min; for Surface labelling after recovery: then 60 min recovery, non‐permeabilized neurons; for Intracellular immunoreactivity after 60 min recovery vs immediately after treatment: then 60 min recovery in absence of ligand, permeabilized neurons; for Effect of ECE2 inhibitor 6634449 on redistribution of internalized receptors during recovery: agonist 10 µmol/L, 6634449 20 μmol/L during 60 min recovery
Description: as §1
Immunolabelling of surface receptors for quantification of trafficking was performed as previously described. ^19 Briefly, primary cultures expressing Flag‐DOPrs were incubated at 37°C with Neurocell medium containing Ca^2+‐dependent mouse anti‐Flag M1 antibody (1:100; Sigma). After 30 minutes incubation with the antibody, vehicle (0.05% DMSO in Neurocell) or agonist (TIPP, deltorphin II; SNC‐80; SB235863; 10 μmol/L) was added to the medium for 60 minutes. At the end of this period, cultured neurons were washed at 37°C once in calcium‐free PBS and then in PBS in order to remove treatment agonist as well as antibody bound to receptors that may have remained at the membrane after agonist exposure. For visualization of internalized receptors, cultures were immediately fixed with 4% PFA, permeabilized with PBS/0.1% Triton (20 minutes at room temperature (RT)), blocked with PBS/BSA 1% (10 minutes at RT) and incubated with secondary antimouse Alexa 488‐conjugated donkey antibody (1:1000; Invitrogen, A21202). Alternatively, cultured neurons were allowed to recover for 60 minutes in the absence of ligand before a second round of calcium‐free PBS wash was completed before fixation, permeabilization and incubation with secondary antibody. The latter procedure allowed to remove antibody bound to Flag‐DOPrs that translocated to the surface during recovery ensuring the exclusive labelling of receptors that were retained intracellularly. ^26 Another set of neurons was similarly treated with agonist or vehicle and then allowed to recover for 60 minutes following which they were fixed and incubated with secondary antibody without permeabilization, so as to exclusively reveal Flag‐DOPrs that reappeared at the surface during recovery from internalization; measures of surface labelling were normalized to intracellular labelling produced during internalization. Recycling was thus established by taking two independent measures: (a) cytoplasmic labelling density lost during recovery from treatment and (b) gain in surface labelling density when neurons were allowed to recover from agonist‐induced internalization. In experiments in which 6634449 was introduced in the medium during recovery, the concentration used was 20 μmol/L.
as §2

DOPr [3] = tested on: DOPr; parameters: method as in PMID 24174495; conditions: cited from earlier work
DOPr [4] = tested on: DOPr; parameters: method as in PMID 24174495; conditions: cited from earlier work; remark: listed apart in the source

Row | Compound | Sequestration (intracellular labelling density) (Flag‐DOPr [1]) | Surface labelling after recovery (Flag‐DOPr [2]) | Intracellular immunoreactivity after 60 min recovery vs immediately after treatment (Flag‐DOPr [2]) | Effect of ECE2 inhibitor 6634449 on redistribution of internalized receptors during recovery (Flag‐DOPr [2]) | Internalization in HEK cells (DOPr [3]) | Decay of cAMP inhibition in HEK cells (DOPr [4])
1 | CCC(C)COC(=O)c1[nH]c2c(c1C)CC1C3Cc4ccc(OC)c5c4C1(CCN3C)C2O5.Cl (stereo not drawn) [SB235863, [8R‐(4bS*,8aα,8aβ,12bβ)]7,10‐dimethyl‐1‐methoxy‐11‐(2‐ethylpropyl)oxycarbonyl 5,6,7,8,12,12b‐hexahydro‐(9H)‐4,8‐methanobenzofuro[3,2‐e]pyrrolo[2,3‐g]isoquinoline hydrochloride] | low‐internalizing | less | not different from the one observed immediately after the end of treatment | without effect | minimal internalization | slow decay
2 | C=CCN1C[C@H](C)N([C@H](c2ccc(C(=O)N(CC)CC)cc2)c2cccc(OC)c2)C[C@H]1C [SNC‐80, (+)‐4‐[(αR)‐α‐((2S,5R)‐4‐allyl‐2,5‐dimethyl‐1‐piperazinyl)‐3‐methoxybenzyl]‐N,N‐diethylbenzamide] | significantly higher | less | not different from the one observed immediately after the end of treatment | without effect | marked internalization | fast decay
3 | deltorphin II | significantly higher |  | significantly reduced | remain trapped in the cytosol | marked internalization | fast decay

From article PMC7214178, “Ligand‐specific recycling profiles determine distinct potential for chronic analgesic tolerance of delta‐opioid receptor (DOPr) agonists” (Journal of Cellular and Molecular Medicine, 2020)
